In US9908890B2, “Selective inhibitors of constitutive androstane receptor” (ST. JUDE CHILDREN'S RESEARCH HOSPITAL, priority 2014, dated 2018):
pIC50: −log10 of the molar value. Where two headings read alike, the source gives them in different places.

Assays:
[1] = system: CAR- and PXR-regulated genes in human primary hepatocytes; assay: Quantitative real-time PCR in human primary hepatocytes; format: cell-based; conditions: three donors, 1 μM CITCO or 5 μM PK11195, 48 h
Source text: (§1) RNA was extracted, cDNA synthesized, and gene expression analyzed by performing real-time PCR using Taqman probes for each gene. […] LS174T cells were maintained in 10% charcoal-dextran-treated, FBS media for 4 days before the experiment. […] Briefly, human primary hepatocytes (HPH) were maintained in William's E media with supplements for 4 days before treatment. […] RNA extracted was used for cDNA synthesis and measured by performing quantitative real-time PCR assays with Taqman probes.
Briefly, human primary hepatocytes (donor 5) were maintained in William's E Media with supplements for 4 days prior to treatment. […] RNA extracted was used for cDNA synthesis and measured by quantitative real-time PCR with Taqman probes. CYP2B6 and CYP3A4 mRNA were normalized to the internal control 18S and DMSO-treated samples were set to 1.
(§2) Cell lines or human hepatocytes were treated with chemicals for 24-48 hours before RNA was extracted and purified by using the Maxwell 16LEV simplyRNA tissue kit (Promega). Then, cDNA was prepared from 2 μg of RNA, and diluted cDNA was used to perform quantitative RT-PCR assays by using TaqMan probes (ABI; 7500 Thermocycler) with 18S as the internal standard.

[2] = system: CAR-regulated genes in LS174T cells; assay: Quantitative real-time PCR in LS174T cells; format: cell-based; conditions: 1 μM CINPA1 or 5 μM PK11195, 24 h
Source text: as §1
Briefly, LS174T were maintained in 10% charcoal-dextran treated-FBS media for 4 days prior to the experiment. […] For the data shown in both FIG. 12A and FIG. 12B, RNA extracted was used for cDNA synthesis and measured by quantitative real-time PCR with Taqman probes. MDR1 mRNA was normalized to the internal control 18S and DMSO treated samples were set to 1. *, p<0.05 when compared to DMSO samples.
as §2

[3] = system: CAR binding to CYP2B6 and CYP3A4 promoter response elements; assay: Chromatin immunoprecipitation (CAR / RNA polymerase II occupancy at promoters); format: cell-based, human; conditions: human primary hepatocytes, 3 donors, overnight, 1 μM CITCO or 5 μM CINPA1
Experimental: FIG. 8B and FIG. 8C show the fold enrichment of CAR at CYP2B6-dNR3 and CYP2B6-PBREM sites, respectively, in the promoter region following the indicated treatment in human primary hepatocytes. […] Protein complexes were cross-linked and chromatin was immunoprecipitated by using anti-CAR antibody or control IgG. CAR occupancy at two separate CYP2B6 promoter regions (dNR3 and PBREM) was determined by performing quantitative RT-PCR assays. Fold-enrichment normalized to IgG control was plotted. Data represent the mean±SD of 3 experiments. *, p<0.01 comparing CITCO treatment to DMSO treatment.
FIG. 9A, FIG. 9B, and FIG. 9C show the fold enrichment of CAR at CYP2B6-dNR3, CYP3A4-XREM, and CYP2B6-dNR3 sites, respectively, in the promoter region following the indicated treatment in human primary hepatocytes or HepG2-hCAR1 cells, as indicated in the figures. Briefly, in FIG. 9A and FIG. […] 9C HepG2-hCAR1 stable cells were treated for […] with DMSO, 1 μM CITCO, 5 μM CINPA1, or 1 μM CITCO+5 μM CINPA1. Protein complexes were cross-linked and chromatin was immunoprecipitated by using anti-CAR antibody, anti-RNA polymerase II (RPol) antibody, or control IgG. CAR or RPol occupancy at the CYP2B6-dNR3 region and CYP3A4-XREM region was determined by performing quantitative RT-PCR assays. Fold-enrichment was normalized to IgG control. Data represent the mean±SD of 3 experiments. *, p<0.001 and #, p<0.01 comparing CITCO to DMSO samples. **, p<0.001 and ##, p<0.01 comparing CITCO+CINPA1 to CITCO samples.
ChIP was performed as described previously (Cherian, M. T., et al. (2012) J. Biol. Chem. 287, 23368-23380). Briefly, human hepatocytes in 6-well plates were maintained for 3-4 days in Williams E medium containing Primary Hepatocyte Maintenance Supplement (Life Technologies), with daily media changes. Nine wells were used for each treatment group. […] The HepG2-hCAR1 stable cells in FIG. 9 were treated with DMSO, 1 μM CITCO, 5 μM CINPA1, or 1 μM CITCO+5 μM CINPA1 for […]. In FIG. 9, the hepatocytes from donor 7 were treated with DMSO, 0.1 μM CITCO, 1 μM CINPA1, or 0.1 μM CITCO+1 μM CINPA1 for 45 min. Proteins were cross-linked with 1% formaldehyde for 10 min. Cell extracts were digested for 10 min with 50 units of micrococcal nuclease (New England Biolabs) at 37° C. and further sonicated to yield sheared DNA fragments having an average length of 200-1000 base pairs. The sonicated samples were pelleted by centrifugation, and the supernatant was diluted 3- to 5-fold with ChIP dilution buffer (0.01% SDS, 1.1% Triton X-100, 1.2 mM EDTA, 16.7 mM Tris-HCl, pH 8.1, 167 mM NaCl, and protease inhibitor cocktail). […] Quantitative RT-PCR assays were performed to determine the change in CAR occupancy at various sites of CAR binding. […]

[4] = target: T1, hCAR1 (Homo sapiens, UniProt Q14994); assay: Cell-based inverse agonist assay (CYP2B6-luciferase reporter in HepG2 cells transfected with hCAR1)
T1 construct: expressed in transfected cells; host or cells: HepG2 (transient transfection)
T1 sequence (Q14994 1-348 isoform Q14994-2): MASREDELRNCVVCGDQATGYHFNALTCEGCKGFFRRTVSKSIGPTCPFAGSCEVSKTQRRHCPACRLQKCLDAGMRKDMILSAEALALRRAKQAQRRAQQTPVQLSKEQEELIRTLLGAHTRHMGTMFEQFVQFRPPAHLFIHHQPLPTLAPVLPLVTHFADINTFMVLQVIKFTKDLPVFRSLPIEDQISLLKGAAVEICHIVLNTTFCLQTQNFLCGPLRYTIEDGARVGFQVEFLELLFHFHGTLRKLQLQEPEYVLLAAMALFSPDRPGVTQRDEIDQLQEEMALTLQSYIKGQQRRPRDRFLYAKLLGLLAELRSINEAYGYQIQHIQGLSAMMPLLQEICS
Experimental: HepG2 cells grown in flasks were transfected with Flag-hCAR1 and CYP2B6-luciferase reporter at a 1:3 ratio with Fugene HD (Promega) and incubated for 24 h. Cells were trypsinized and plated in 384-well plates (CulturPlate-384, PerkinElmer) at 5000 cells/well for the primary or secondary screening assays. Cells were treated with chemicals transferred by using a pintool 24 h prior to measuring reporter luciferase activity with SteadyLite firefly luciferase reagent and an EnVision plate reader (PerkinElmer). […] PXR activity was measured in HepG2 cells stably transfected with hPXR and CYP3A4-luciferase reporter (previously described as PXR Clonel cells, see Li, G., et al. (2012) Tox. Appl. Pharm. 258, 268-274; and Lin, W., et al. (2008) J. Biol. Chem. 283, 30650-30657). […] The luminescence signal was detected by using an Envision plate reader (PerkinElmer) and used to calculate the percentage of PXR activation. […] A flowchart of our screening strategy is illustrated in FIG. 1A. HepG2 cells were transiently transfected with pcDNA-hCAR1 and CYP2B6-luciferase plasmids and treated with varying concentrations of the test compounds in 384-well plates for 24 h, and CAR-mediated luciferase activity was measured. Twenty-five hits, defined as those displaying dose-responsive inhibitory effect on the constitutively active hCAR1, were selected and tested in various secondary screening assays. CINPA1 (FIG. 1B) was selected based on its potent inhibitory effect on hCAR1 and lack of detectable agonistic activity against PXR.

[5] = target: T2, GST-hCAR-LBD (Homo sapiens, UniProt Q14994); assay: CoAct binding inverse agonist assay (LanthaScreen TR-FRET, fluorescent PGC-1α coactivator recruitment/repression); format: biochemical; conditions: for inhibition at 70 µM: read-out: % Inhibition (70 μM)
T2 construct: purchased Life Technologies (Carlsbad, Calif.) or Invitrogen (Carlsbad, Calif.)
T2 sequence (Q14994 109-352 limits assumed): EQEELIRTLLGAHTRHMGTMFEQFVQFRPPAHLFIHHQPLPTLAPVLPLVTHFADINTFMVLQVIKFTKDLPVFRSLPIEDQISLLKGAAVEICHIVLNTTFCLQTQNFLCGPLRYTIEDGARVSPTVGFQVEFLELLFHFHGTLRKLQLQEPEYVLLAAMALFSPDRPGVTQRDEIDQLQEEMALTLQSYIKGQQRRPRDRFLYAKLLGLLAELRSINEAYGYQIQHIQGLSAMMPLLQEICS
Experimental: The effect of putative CAR ligands on the recruitment or repression of PGC-1α binding to hCAR was evaluated by using a LanthaScreen TR-FRET assay according to the manufacturer's instructions. […] The final DMSO concentration was 0.7% in all assay wells. […] The % Inhibition values were then plotted for individual chemicals. When applicable, the graphic software GraphPad Prism 5.04 (GraphPad Software, La Jolla, Calif., USA) was used to fit the data into a one-site competitive-binding equation to derive IC50 values. […] The assay plates were then briefly spun down and incubated for 1 hour at room temperature (25° C.). […] The final DMSO concentration was 0.7% in all assay wells. […] The % Inhibition values were then plotted for individual chemicals. When applicable, the graphic software GraphPad Prism 5.04 (GraphPad Software, La Jolla, Calif., USA) was used to fit the data into a one-site competitive-binding equation to derive IC50 values.

[6] = 70 μM compound, 42 μM clotrimazole = 100%, DMSO = 0%
[7] = read-out: IC50 (CAR inverse agonistic activity)

Row | Molecule | CYP2B6 mRNA level, compound alone [1] | IC50 [4] [µM] | % Inhibition (56 μM) [4] [%] | inhibition at 70 µM [5, 6] [%] | pIC50 [5, 7] | other results
1 | CCC(C)N(C)C(=O)c1cc2ccccc2c(-c2ccccc2Cl)n1 (stereo not shown) [PK11195, reference compound] | increased CYP2B6 transcription | – | – | – | – | CYP2B6 mRNA level [2]: reduced the levels of CYP2B6; CYP3A4 mRNA level [2]: increased that of CYP3A4; MDR1 mRNA level [2]: reduced MDR1 levels
2 | Clc1ccc(-c2nc3sccn3c2/C=N/OCc2ccc(Cl)c(Cl)c2)cc1 [CITCO, 6-(4-chlorophenyl)imidazo [2,1-b][1,3]thiazole-5-carbaldehyde O-(3,4-dichlorobenzyl) oxime, reference compound] | induced CYP2B6 levels | – | – | – | – | CAR recruitment to XREM (dNR3) of the CYP2B6 gene [3]: enhances recruitment of CAR
3 | CCN(CC)CC(=O)N1c2ccccc2CCc2ccc(NC(=O)N(CC)CC)cc21 [Compound 8, 3-(5-(diethylglycyl)-10,11-dihydro-5H-dibenzo[b,f]azepin-3-yl)-1,1-diethylurea] | – | 109.6 | 2.849 | 93.8 | 4.85 | –
4 | N-(5-(diethylglycyl)-10,11-dihydro-5H-dibenzo[b,f]azepin-3-yl)isobutyramide [Compound 3] | – | 104.4 | 0.03612 | – | 6.17 | % Inhibition (70 μM) [5, 6]: 113.8%
5 | CCN(CC)CC(=O)N1c2ccccc2CCc2ccc(Nc3nnc(C)o3)cc21 [Compound 10, 2-(diethylamino)-1-(3-((5-methyl-1,3,4-oxadiazol-2-yl)amino)-10,11-dihydro-5H-dibenzo[b,f]azepin-5-yl)ethan-1-one] | – | 111.6 | 6.281 | 93.8 | – | pIC50 ([5]; Table 4, read-out: IC50): 4.73; fold increase of IC50 (decrease of activity) relative to lead chemical 1 (CINPA1) ([5]; relative to chemical 1): about 3.4 fold
